“Also recorded” adds a separate entry of the source. Non-standard residues stand in square brackets, D forms with d. Residues, ends and D or L forms follow the SMILES beside them. *: point of attachment. Sta = CC(C)C[C@H](N)[C@@H](O)CC(=O)O; Isovaleryl = CC(C)CC(=O)*; Cbz = O=C(OCc1ccccc1)*; CH2F = FC*
Assays:
caspase-1 [1] = assay: Caspase-1 cleavage/activation in mouse macrophages (Western blot p10); format: cell-based; conditions: for caspase-1 cleavage induced by the stimulus: LPS-primed bone marrow-derived macrophages, wild-type; for caspase-1 cleavage (p10) induced by the stimulus: LPS-primed wild type bone marrow-derived macrophages, Aβ and reverse Aβ 10 μM
Experimental: (§1) Bone marrow derived macrophages were generated as described (Severa, M et al. Journal of Biological Chemistry 281:26188-26195 (2006)). Human PBMCs were isolated by from whole blood of healthy volunteers by density gradient centrifugation. Lysis of red blood cells was performed using red blood cell lysis buffer (Sigma). Experiments in PBMCs and macrophages were carried out at a cell density of 2×10^6 cells/ml. All primary cells and cell lines except THP-1 cells were cultured in DMEM supplemented with L-glutamine, ciprofloxacin (Cellgro, Manassas, Va.) and 10% fetal calf serum (Hyclone, Logan, Utah). THP-1 cells were cultured in RPMI supplemented with 10% fetal calf serum (Hyclone), L-glutamine, sodium pyruvate (Cellgro), and ciprofloxacin. One day prior to stimulation, THP-1 cells were differentiated using 0.5 μM PMA for three hours, washed three times and plated for stimulation. All experiments that were performed for Western blot analysis were carried out in serum free DMEM medium. ATP stimulations were carried out at 5 mM one hour prior to harvesting supernatants.
Cell culture supernatants were precipitated by adding an equal volume of methanol and 0.25 volumes of chloroform, vortexed and centrifuged at 20.000×g for 10 min. The upper phase was discarded and 500 μl of methanol was added to the interphase. This mixture was centrifuged at 20.000×g for 10 min and the protein pellet dried at 55° C., resuspended in Laemmli buffer and boiled at 99° C. for 5 min. Samples were separated by SDS-PAGE (15%) and transferred onto nitrocellulose membranes. As indicated, blots were incubated with rabbit polyclonal antibody to anti murine caspase-1 p10 (sc-514, Santa Cruz Biotechnology, Santa Cruz, Calif.), rabbit polyclonal anti human caspase-1 p10 (sc-515, Santa Cruz Biotechnology), rabbit polyclonal anti human cleaved IL-1β (Asp116) (Cell Signaling, Boston, Mass.) or rabbit polyclonal anti murine cathepsin B (R&D Systems, Minneapolis, Minn.).
Cell culture supernatants were precipitated by adding an equal volume of methanol and 0.25 volumes of chloroform, vortexed and centrifuged at 20,000×g for 10 min. The upper phase was discarded and 500 μl of methanol was added to the interphase. This mixture was centrifuged at 20,000×g for 10 min and the protein pellet dried at 55° C., resuspended in Laemmli buffer and boiled at 99° C. for 5 min Samples were separated by SDS-PAGE (15%) and transferred onto nitrocellulose membranes. Blots were incubated with rabbit polyclonal antibody to anti murine caspase-1 p10 (sc-514, Santa Cruz Biotechnology, Santa Cruz, Calif.).

THP-1 cells = assay: Lysosomal rupturing in THP-1 cells, IL-1β release; format: cell-based, human; conditions: PMA-differentiated THP-1 cells
Experimental: Cell culture supernatants were assayed for IL-1β using ELISA kits from BD Biosciences (Franklin Lakes, NJ) according to the manufacturer's instructions. To measure intracellular IL-1β, cells were washed and subjected to three freeze thaw cycles in assay diluent. PMA-differentiated THP-1 cells were incubated with hypertonic DMEM medium containing 10% polyethylene glycol (PEG) 1000, 1.4 M sucrose, 20 mM Hepes (pH 7.2) and 5% FCS for […] at 37° C. Cells were subsequently washed and incubated in hypotonic DMEM medium [DMEM: H2O (3:2)] for 2 min to induce lysosomal rupturing. Cells were then incubated in serum free DMEM for additional 4 hours.

caspase-1 [2] = assay: Caspase-1 activation in microglia (FLICA, confocal microscopy, flow cytometry); format: cell-based, mouse
Experimental: For assessment of microglia-induced neurotoxicity, CAD mouse neuronal cells^47 were seeded on poly-L-lysine coated glass cover slips and grown in F12/DMEM supplemented with ciprofloxacin (Cellgro, Manassas, Va.) and 10% fetal calf serum (Hyclone, Logan, Utah) for 24 h. Differentiation was induced by withdrawal of serum for 48 h Immortalized microglia from wildtype or caspase-1^−/− mice were added in serum free medium to obtain mixed neuronal/microglial cultures and immediately stimulated. 72 h after stimulation with Aβ or media, cells were fixed, stained for the neuron-specific marker TuJ-1 and microglial marker CD11b, and imaged by confocal microscopy (Leica SP2 AOBS). Caspase-1 activity in microglial cells was assessed using the caspase-1 FLICA™ kit (Immunochemistry Technologies, Bloomington, Minn.) according to the manufacturer's instructions.
For evaluation of lysosomal damage, cells were incubated with LysoTracker green (1:2000) for 30 min and stimulated as described. Lysosomal damage was defined as loss of LysoTracker fluorescence as assessed by flow cytometry. All flow cytometry experiments were performed on an LSRII cytometer (BD Biosciences), data were acquired by DIVA software (BD Biosciences) and analyzed with FlowJo software (Tree Star Inc., Ashland, Oreg.).
IL-1β maturation is controlled by caspase-1 after assembly of the inflammasome, a multi protein complex that activates pro-caspase-1. In order to test whether Aβ activates caspase-1, we measured levels of activated caspase-1 using a fluorescent cell permeable probe (FAM-YVAD-Fmk), which covalently binds only to activated caspase-1 (Fluorescent labeled Inhibitors of Caspases, FLICA)^14. […] Similar results were obtained in primary microglial cultures (FIG. 15c).

ASC = assay: ASC-CFP microglia cell line, ASC clustering; format: cell-based, mouse; conditions: LPS-primed ASC-CFP microglia, 3 h after stimulation
Description: Human ASC was fused to CFP using BgIII/BamHI in pEF-BOS-CFP. Subsequently, ASC-CFP was cloned using XhoI and NotI into a modified form of FUGW (FUGW-XN). FUGW-XN was modified by replacing GFP with a novel cut site that created XhoI and NotI compatible ends upon Esp3I digestion.
Lentivirus was produced in 293T cells transfected with the FUGW based expression vector coding for ASC-CFP, lentiviral packaging plasmid containing gag, pol and rev genes (pCMV-dR8.91) and envelope plasmid (VSV-G) using TransIT-LT1 transfection reagent (Minis Bio, MIR 2300/5/6) as previously described^46. One day after transfection, medium was replaced and after one additional day of culture supernatants containing the lentivirus was removed, filtered and used to infect immortalized microglia cells.
For experiments, ASC-CFP microglial cells were seeded in duplicate into confocal dishes, stimulated as indicated. A647-labeled cholera toxin subunit B (1:1000) was added to stain cellular membranes. Cells were subsequently imaged using confocal microscopy (Leica SP2 AOBS). Cells were fixed and 5 random fields were imaged in duplicate for quantification.
First, we stably transduced microglial cell cultures with a fusion protein of ASC and cyan fluorescent protein (CFP). ASC forms large oligomers upon its activation, leading to visible changes in the cytoplasmic fluorescence pattern of ASC-CFP. […]

mouse microglia = assay: IL-1β release from LPS-primed mouse microglia (ELISA); format: cell-based; conditions: LPS-primed immortalized microglia
Experimental: For primary cultures, bone marrow-derived macrophages and microglia were isolated as described^42,43 and cultured in DMEM supplemented with L-glutamine, ciprofloxacin (Cellgro, Manassas, Va.) and 10% fetal calf serum (Hyclone, Logan, Utah) Immortalized macrophage and microglial cell lines were generated using J2 recombinant retrovirus (carrying v-myc and v-raf oncogenes)^44,45. Briefly, primary bone marrow cells were incubated in L929 conditioned medium for 3-4 days to induce macrophage differentiation. Cells were then infected with J2 recombinant retrovirus and maintained in culture until cells were growing in the absence of conditioned medium. Similarly, primary mixed glial cultures were cultured until fully confluent. After two consecutive infections with J2 retrovirus, cells were maintained in normal medium until growth of microglial cells in colonies was observed. The semi-adherent colonies of microglial cells were washed off and cultured in new flasks. […] Microglial cell lines form wild type (C57/BL6), Caspase-1^−/− and IL-IR^−/− mice as well as macrophage cell lines from wild type (C57BL6), NALP3 -, IPAF- and ASC-deficient mice were generated and used for experiments as indicated.
(§2) Stimulations were carried out in serum free DMEM medium. Microglial cells and macrophages were primed with 100 U/ml IFNγ (Griess assay, TNF ELISA, real-time quantitative PCR) or 100 ng/ml ultrapure LPS (IL-1β ELISA, FLICA, ASC-CFP microglia cell line assay, Western blot) 1-3 h prior to stimulation with Aβ, revAβ, zymosan, ATP or transfection with dAdT.
Cell culture supernatants were assayed for IL-1β and TNFα using ELISA kits from R&D Systems (Minneapolis, Minn.) according to the manufacturer's instructions. Nitric oxide was measured by Griess reaction of nitrites accumulated in the supernatants using chemicals from Sigma.

mouse macrophages = assay: IL-1β release from LPS-primed mouse macrophages (bone marrow-derived, B6-MCLs), ELISA; format: cell-based
Experimental: as §1
Immortalized macrophage cell lines were generated using the previously described J2 recombinant retrovirus (carrying v-myc and v-raf/mil oncogenes) (Roberson, S. M. & Walker, W. S. Cellular immunology 116:341-351 (1988)). Briefly, primary bone marrow cells were incubated in L929 conditioned medium for 3-4 days to induce macrophage differentiation. Subsequently, cells were infected with J2 recombinant retrovirus. Cells were maintained in culture for 3-6 months slowly weaning off the percentage of L929 supernatant until cells were growing in the absence of conditioned medium.
Macrophage phenotype was verified by surface marker expression for CD11b and F480 as well as a range of functional parameters, including responsiveness to TLR ligands and bacterial uptake. Macrophage cell lines from wild-type (C57BL6), NALP3- and ASC-deficient mice were generated and are referred to as B6-MCLs, NALP3 -MCLs and ASC-MCLs.
Cell culture supernatants were assayed for IL-1β using ELISA kits from BD Biosciences (Franklin Lakes, NJ) according to the manufacturer's instructions. To measure intracellular IL-1β, cells were washed and subjected to three freeze thaw cycles in assay diluent.
as §2

[3] = tested on: lysosomes of mouse macrophages; assay: Lysosomal acidification, proteolysis and rupture in mouse macrophages (LysoSensor Green, DQ ovalbumin, acridine orange, dextran); format: cell-based
Experimental: For evaluation of lysosomal rupture, cells were incubated with 1 μg/m1 acridine orange for 15 min, washed three times and subsequently stimulated as indicated. Lysosomal rupture can be assessed by loss of emission at 600-650 nm using flow cytometry. All flow cytometry experiments were performed on an LSRII cytometer (BD Biosciences). Data were acquired by DIVA (BD Biosciences) and analyzed by FlowJo software (Tree Star Inc., Ashland, Oreg.).
Confocal reflection microscopy was combined with fluorescence microscopy on a Leica SP2 AOBS confocal laser scanning microscope. Reflection was captured by placing the detector channel directly over the wavelength of the selected laser channel for reflection light capture and the AOBS was set to allow 5-15% of laser light into the collection channel. Fluorescence was simultaneously captured by standard confocal imaging techniques.

## Nc1ncnc2c1ncn2[C@@H]1O[C@H](COP(=O)(O)OP(=O)(O)OP(=O)(O)O)[C@@H](O)[C@H]1O [ATP]
caspase-1 [1]
  caspase-1 cleavage induced by the stimulus: induced in a dose dependent way
  caspase-1 cleavage (p10) induced by the stimulus: induced caspase-1 cleavage (p10)
THP-1 cells; 4 h
  IL-1β release induced by the stimulus: increased IL-1β release
caspase-1 [2]; immortalized microglia, Aβ 10 μM, revAβ 10 μM, ATP 1 mM, 4 h
  caspase-1 positive microglial cells after stimulation: robust increase
ASC
  formation of fluorescent ASC-CFP clusters: also observed

## CCCNC(=O)[C@H]1O[C@@H]1C(=O)N[C@H](C(=O)N1CCC[C@H]1C(=O)OC)[C@@H](C)CC [CA-074-Me]
caspase-1 [1]; LPS-primed B6-MCLs, CA-074-Me 10 μM (FIG. 5a)
  caspase-1 activation after silica crystal treatment, inhibitor present: much less caspase-1 activation
caspase-1 [1]; mouse macrophages, hypertonic then hypotonic media, CA-074-Me 10 or 2 μM
  caspase-1 cleavage after crystal-independent disruption of lysosomes, inhibitor present: partially inhibited
THP-1 cells
  IL-1β release after lysosomal rupture, inhibitor present: clearly reduced
Mouse microglia
  Aβ-induced IL-1β release in presence of cathepsin inhibitor: dose-dependently inhibited
caspase-1 [2]; microglia, FLICA, flow cytometry
  caspase-1 activation after Aβ stimulation, inhibitor present: strongly and dose-dependently inhibited; also recorded: dose-dependently reduced
caspase-1 [2]; microglia, FLICA, inhibitor 20 μM
  caspase-1 activation induced by ATP, inhibitor present: not affected; also recorded: no effect

## COC(=O)[C@H](CC(C)C)NC(=O)[C@@H](N)CC(C)C [Leu-Leu-OMe, L-leucyl-L-leucine methyl ester]
Mouse macrophages; LPS-primed macrophages from wild-type mice
  IL-1β produced in response to the stimulus: large quantities of IL-1β
[3]; mouse macrophages, acridine orange, DQ ovalbumin, dextran
  lysosomal rupture / loss of lysosomes caused by the stimulus: considerable swelling and rupture of lysosomes

## O=C(NC(Cc1ccccc1)C(=O)NC(Cc1ccccc1)C(=O)CF)OCc1ccccc1 (stereo not drawn) [Z-FF-FMK] (Cbz-Phe-Phe-CH2F; configuration not given here)
Mouse microglia
  Aβ-induced IL-1β release in presence of cathepsin inhibitor: no effect; also recorded: no attenuation

## CO/C1=C\C(C)=C\[C@@H](C)[C@@H](O)[C@@H](C)C/C(C)=C/C=C/[C@H](OC)[C@@H]([C@@H](C)[C@@H](O)[C@H](C)[C@@]2(O)C[C@@H](O)[C@H](C)[C@@H](C(C)C)O2)OC1=O [bafilomycin A]
Mouse macrophages; LPS-primed B6-MCLs, 6 h
  ATP-induced IL-1β release, inhibitor present: no effect
  silica-mediated IL-1β release, inhibitor present: completely blocked
Mouse macrophages; LPS-primed bone marrow-derived macrophages, bafilomycin 250 nM
  release of IL-1b in response to Leu-Leu-OMe, inhibitor present: also inhibited
[3]; mouse macrophages
  formation of acidic lysosomes (LysoSensor Green): blocked
[3]; mouse macrophages (data not shown)
  Leu-Leu-OMe-induced lysosomal morphology change and rupture, inhibitor present: much less altered lysosomal morphology and rupture
[3]; mouse macrophages, bafilomycin 250 nM
  appearance of fluorescent DQ ovalbumin (lysosomal proteolytic function): suppressed

## CC(C)CC(=O)N[C@H](C(=O)N[C@H](C(=O)N[C@@H](CC(C)C)[C@@H](O)CC(=O)N[C@@H](C)C(=O)N[C@@H](CC(C)C)[C@@H](O)CC(=O)O)C(C)C)C(C)C [pepstatin A] (Isovaleryl-VV[Sta]A[Sta]-OH)
Mouse microglia
  Aβ-induced IL-1β release in presence of cathepsin inhibitor: no effect; also recorded: no attenuation

## poly(deoxyadenylic-thymidylic) acid sodium salt [poly(dA:dT)]
caspase-1 [1]
  caspase-1 cleavage induced by the stimulus: induced in a dose dependent way
  caspase-1 cleavage (p10) induced by the stimulus: induced caspase-1 cleavage (p10)
